Several values for one entry are separate records, joined by “and”; a condition that tells them apart may be missing. Identical values can stand only once.
System: Bx-PC3-e242 Xenograft
Test: Bx-PC3-e242 Xenograft Study
Type: in vivo, female (nu/nu) mice
Parameters: key to Mean BW Nadir: — indicates no decrease in mean body weight was observed
Conditions: for % TGI: D15, compared to Group 1; for % TGD: [(T − C)/C] × 100; for MTV (n) D54: day of TGD analysis, excludes animals reaching endpoint; for MTV (n) D15: day of TGI analysis, includes animals at endpoint; for T − C: difference of median TTE versus control group (Group 1); for Mean TTE / Median TTE: endpoint 1500 mm^3; for Individual TTE values: individual animals 1-9, endpoint 1500 mm^3, study duration 54 days; for Mean BW Nadir: lowest group mean body weight as % change from Day 1; for No. of NTR: non-treatment-related death; for No. of PR: partial regression, 9 animals
Protocol: In vivo activity of compound B: Bx-PC3-e242 Xenograft Study Bx-PC3-e242 cells were injected into 11-week-old female (nu/nu) mice. Tumors were allowed to reach 115.5-116.7 mm^3 (group mean tumor range); 63-196 mm^3 (Individual Tumor Range) in size (23 days) and mice were randomized into 6 groups of 9 animals (body weight range 18.0-25.2 g). Mice were treated by according to the chart below:
Tumors were measured with a caliper and tumor volumes calculated using the following formula:
where w=width and l=length in mm of a tumor. Tumor weight is estimated with the assumption that 1 mg is equivalent to 1 mm^3 of tumor volume.
Each animal was euthanized when the tumor reached endpoint size or at the end of the study, whichever comes first. The time to endpoint (TTE) for each mouse is calculated according to the following equation
The study endpoint was 1500 mm^3, with a study duration of 54 days.
Treatment may cause partial regression (PR) or complete regression (CR) of the tumor in an animal. In a PR response, the tumor volume is 50% or less of its Day 1 volume for three consecutive measurements during the course of the study.
Treatment outcome is evaluated by tumor growth delay (TGD), defined as the increase in the median time to endpoint (TTE) in a treatment group compared to the control group:
Response to treatment was also evaluated for tumor growth inhibition (TGI), defined as the difference between the median tumor volumes (MTVs) of treated and control mice.
Animals were weighed daily for the first five days of the study and then twice weekly. The mice are observed frequently for overt signs of any adverse, treatment-related side effects, and clinical signs of toxicity were recorded when observed.

[1] = Group 3: Cmpd B 25 mg/kg po qd × 14
[2] = Group 4: Cmpd B 6.25 mg/kg po bid × 14 first day 1 dose
[3] = Group 6: Cmpd B 12.5 mg/kg po, then 6.25 mg/kg po bid × 11 first day 1 dose (start on day 4)

`Cc1c(Nc2ccc(I)cc2F)c(NS(=O)(=O)C2CC2)cn(C)c1=O` [Compound B, N-(4-(2-fluoro-4-iodophenylamino)-1,5-dimethyl-6-oxo-1,6-dihydropyridin-3-yl)cyclopropanesulfonamide] was tested. Which “Weekly Median Tumor Volume (number of animals in parentheses)” value (shortened to “Weekly Median Tumor Volume”) (D1, Group 3: Cmpd B 25 mg/kg po qd × 14) did it give?
The value was 108 (9) mm^3.

What about the “Weekly Median Tumor Volume” value (D1, Group 4: Cmpd B 6.25 mg/kg po bid × 14 first day 1 dose) of the same compound?
Its value is 108 (9) mm^3.

What about the “Weekly Median Tumor Volume” value (D1, Group 5: Cmpd B 9 mg/kg po) of the same compound?
Its value is 108 (9) mm^3.

What about the “Weekly Median Tumor Volume” value (D1, Group 6: Cmpd B 12.5 mg/kg po, then 6.25 mg/kg po bid × 11 first day 1 dose (start on day 4)) of the same compound?
The value was 75 (9) mm^3.

What about the “Weekly Median Tumor Volume” value (D5, Group 3: Cmpd B 25 mg/kg po qd × 14) of the same compound?
Its value is 75 (9) mm^3.

And the “Weekly Median Tumor Volume” value (D5, Group 4: Cmpd B 6.25 mg/kg po bid × 14 first day 1 dose)?
The value was 75 (9) mm^3.

And the “Weekly Median Tumor Volume” value (D5, Group 5: Cmpd B 9 mg/kg po)?
The value was 63 (9) mm^3.

What about the “Weekly Median Tumor Volume” value (D5, Group 6: Cmpd B 12.5 mg/kg po, then 6.25 mg/kg po bid × 11 first day 1 dose (start on day 4)) of the same compound?
The value was 75 (9) mm^3.

And the “Weekly Median Tumor Volume” value (D10, Group 3: Cmpd B 25 mg/kg po qd × 14)?
The value was 196 (9) mm^3.

And the “Weekly Median Tumor Volume” value (D10, Group 4: Cmpd B 6.25 mg/kg po bid × 14 first day 1 dose)?
Its value is 196 (9) mm^3.

And the “Weekly Median Tumor Volume” value (D10, Group 5: Cmpd B 9 mg/kg po)?
The value was 172 (9) mm^3.

What about the “Weekly Median Tumor Volume” value (D10, Group 6: Cmpd B 12.5 mg/kg po, then 6.25 mg/kg po bid × 11 first day 1 dose (start on day 4)) of the same compound?
Its value is 259 (9) mm^3.

And the “% TGI” value [1]?
Its value is 82%.

What about the “% TGI” value [2] of the same compound?
The value was 89%.

What about the “% TGI” value (Group 5: Cmpd B 9 mg/kg po) of the same compound?
Its value is 89%.

And the “% TGI” value [3]?
The value was 84%.

And the “Weekly Median Tumor Volume” value (D15, Group 3: Cmpd B 25 mg/kg po qd × 14)?
Its value is 196 (9) mm^3.

And the “Weekly Median Tumor Volume” value (D15, Group 4: Cmpd B 6.25 mg/kg po bid × 14 first day 1 dose)?
The value was 126 (9) mm^3.

What about the “Weekly Median Tumor Volume” value (D15, Group 5: Cmpd B 9 mg/kg po) of the same compound?
The value was 126 (9) mm^3.

And the “Weekly Median Tumor Volume” value (D15, Group 6: Cmpd B 12.5 mg/kg po, then 6.25 mg/kg po bid × 11 first day 1 dose (start on day 4))?
Its value is 172 (9) mm^3.

And the “Weekly Median Tumor Volume” value (D22, Group 3: Cmpd B 25 mg/kg po qd × 14)?
The value was 446 (9) mm^3.

What about the “Weekly Median Tumor Volume” value (D22, Group 4: Cmpd B 6.25 mg/kg po bid × 14 first day 1 dose) of the same compound?
Its value is 288 (9) mm^3.

And the “Weekly Median Tumor Volume” value (D22, Group 5: Cmpd B 9 mg/kg po)?
Its value is 288 (9) mm^3.

What about the “Weekly Median Tumor Volume” value (D22, Group 6: Cmpd B 12.5 mg/kg po, then 6.25 mg/kg po bid × 11 first day 1 dose (start on day 4)) of the same compound?
Its value is 550 (9) mm^3.

And the “Weekly Median Tumor Volume” value (D29, Group 3: Cmpd B 25 mg/kg po qd × 14)?
Its value is 864 (5) mm^3.

And the “Weekly Median Tumor Volume” value (D29, Group 4: Cmpd B 6.25 mg/kg po bid × 14 first day 1 dose)?
Its value is 509 (8) mm^3.

And the “Weekly Median Tumor Volume” value (D29, Group 5: Cmpd B 9 mg/kg po)?
The value was 566 (8) mm^3.

And the “Weekly Median Tumor Volume” value (D29, Group 6: Cmpd B 12.5 mg/kg po, then 6.25 mg/kg po bid × 11 first day 1 dose (start on day 4))?
Its value is 1008 (9) mm^3.

And the “Weekly Median Tumor Volume” value (D36, Group 3: Cmpd B 25 mg/kg po qd × 14)?
Its value is 867 (4) mm^3.

And the “Weekly Median Tumor Volume” value (D36, Group 4: Cmpd B 6.25 mg/kg po bid × 14 first day 1 dose)?
The value was 600 (6) mm^3.

What about the “Weekly Median Tumor Volume” value (D36, Group 5: Cmpd B 9 mg/kg po) of the same compound?
Its value is 600 (5) mm^3.

And the “Weekly Median Tumor Volume” value (D36, Group 6: Cmpd B 12.5 mg/kg po, then 6.25 mg/kg po bid × 11 first day 1 dose (start on day 4))?
The value was 900 (2) mm^3.

What about the “Weekly Median Tumor Volume” value (D43, Group 3: Cmpd B 25 mg/kg po qd × 14) of the same compound?
The value was 1015 (2) mm^3.

And the “Weekly Median Tumor Volume” value (D43, Group 4: Cmpd B 6.25 mg/kg po bid × 14 first day 1 dose)?
The value was 1268 (3) mm^3.

What about the “Weekly Median Tumor Volume” value (D43, Group 5: Cmpd B 9 mg/kg po) of the same compound?
Its value is 1008 (1) mm^3.

What about the “Weekly Median Tumor Volume” value (D43, Group 6: Cmpd B 12.5 mg/kg po, then 6.25 mg/kg po bid × 11 first day 1 dose (start on day 4)) of the same compound?
The value was 1470 (1) mm^3.

What about the “Weekly Median Tumor Volume” value (D50, Group 3: Cmpd B 25 mg/kg po qd × 14) of the same compound?
Its value is 1327 (2) mm^3.

What about the “Weekly Median Tumor Volume” value (D50, Group 4: Cmpd B 6.25 mg/kg po bid × 14 first day 1 dose) of the same compound?
The value was 976 (2) mm^3.

And the “Weekly Median Tumor Volume” value (D50, Group 5: Cmpd B 9 mg/kg po)?
Its value is 1470 (1) mm^3.

And the “% TGD” value [1]?
The value was 62%.

And the “% TGD” value [2]?
Its value is 91%.

And the “% TGD” value (Group 5: Cmpd B 9 mg/kg po)?
Its value is 94%.

And the “% TGD” value [3]?
The value was 69%.

And the “MTV (n) D54” value [1]?
Its value is 1470 (1) mm^3.

What about the “MTV (n) D54” value [2] of the same compound?
Its value is 486 (1) mm^3.

And the “MTV (n) D15” value [1]?
Its value is 196 (9) mm^3.

And the “MTV (n) D15” value [2]?
The value was 126 (9) mm^3.

What about the “MTV (n) D15” value (Group 5: Cmpd B 9 mg/kg po) of the same compound?
Its value is 126 (9) mm^3.

And the “MTV (n) D15” value [3]?
Its value is 172 (9) mm^3.

And the “T − C” value [1]?
Its value is 12.1 days.

What about the “T − C” value [2] of the same compound?
Its value is 17.8 days.

What about the “T − C” value (Group 5: Cmpd B 9 mg/kg po) of the same compound?
The value was 18.3 days.

What about the “T − C” value [3] of the same compound?
The value was 13.4 days.

And the “Mean TTE” value [1]?
Its value is 35.4 days.

And the “Median TTE” value [1]?
The value was 31.6 days.

What about the “Mean TTE” value [2] of the same compound?
Its value is 40.7 days.

And the “Median TTE” value [2]?
Its value is 37.3 days.

What about the “Mean TTE” value (Group 5: Cmpd B 9 mg/kg po) of the same compound?
The value was 37.8 days.

And the “Median TTE” value (Group 5: Cmpd B 9 mg/kg po)?
The value was 37.8 days.

What about the “Mean TTE” value [3] of the same compound?
The value was 34.9 days.

And the “Median TTE” value [3]?
The value was 32.9 days.

What about the “Individual TTE values” (* = non-treatment-related death, Group 4: Cmpd B 6.25 mg/kg po bid × 14 first day 1 dose) of the same compound?
Its value is 54.0 days and 51.4 days and 50.0 days and 35.1 days and 36.9 days and *40.0 days and 29.0 days and 37.7 days and 31.5 days.

What about the “Individual TTE values” [1] of the same compound?
The value was 23.4 days and 28.3 days and 54.0 days and 50.1 days and 26.5 days and 31.6 days and 38.2 days and 40.2 days and 26.8 days.

What about the “Individual TTE values” (Group 5: Cmpd B 9 mg/kg po) of the same compound?
The value was 31.8 days and 42.8 days (2×) and 33.8 days and 41.7 days and 50.3 days and 30.5 days and 28.2 days and 37.8 days.

What about the “Individual TTE values” [3] of the same compound?
Its value is 32.9 days and 45.6 days and 35.7 days and 29.7 days and 33.3 days and 41.0 days and 31.1 days and 31.8 days and 32.8 days.

What about the “Mean BW Nadir” value [1] of the same compound?
The value was “—”.

And the “Mean BW Nadir” value [2]?
Its value is “—”.

And the “Mean BW Nadir” value (Group 5: Cmpd B 9 mg/kg po)?
Its value is “—”.

And the “Mean BW Nadir” value [3]?
The value was “—”.

And the “Mean TV(n)” value (n = 1, Group 5: Cmpd B 9 mg/kg po)?
Its value is 1913 mm^3.

And the “Mean TV(n)” value (n = 2, Group 3: Cmpd B 25 mg/kg po qd × 14)?
Its value is 1635 mm^3.

And the “Mean TV(n)” value (n = 2, Group 4: Cmpd B 6.25 mg/kg po bid × 14 first day 1 dose)?
The value was 1076 mm^3.

And the “No. of NTR” value [1]?
The value was 0.

What about the “No. of NTR” value [2] of the same compound?
Its value is 1.

What about the “No. of NTR” value (Group 5: Cmpd B 9 mg/kg po) of the same compound?
The value was 0.

What about the “No. of NTR” value [3] of the same compound?
Its value is 0.

What about the “No. of PR” value [1] of the same compound?
Its value is 0.

And the “No. of PR” value [2]?
Its value is 0.

And the “No. of PR” value (Group 5: Cmpd B 9 mg/kg po)?
The value was 0.

What about the “No. of PR” value [3] of the same compound?
The value was 0.

— patent publication US20120053211A1, “TREATMENT OF PANCREATIC CANCER” (ARDEA BIOSCIENCES, INC., priority 2009, published 2012)
